Source: PubChem BioAssay AID1963869 (Molecular Pharmacology Branch, DTP, NCI, 2024)

Test system: KRAS patient-derived spheroids with HUVEC/MSC, viability
Assay: Anticancer human tumor 323965-272-R-J2-PDC patient-derived pancreatic carcinoma cell line growth inhibition [KRAS2]
Conditions: for IC50: curve of first compound; for viability, T/C: stronger effect = lower value
In short: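 KRAS-mutant tumor cells were grown as spheroids with HUVEC endothelial cells and human MSCs as stroma. Targeted agents were tested alone and with KRAS pathway inhibitors. Doses started at or near clinical Cmax, or 10 microM, descending half-log.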

[1] = second compound 0.0316 µM, first compound 0.0316 µM
[2] = second compound 0.0316 µM, first compound 0.1 µM
[3] = second compound 0.0316 µM, first compound 0.316 µM
[4] = second compound 0.0316 µM, first compound 1 µM
[5] = second compound 0.0316 µM, first compound 3.16 µM
[6] = second compound 0.0316 µM, first compound 10 µM
[7] = second compound 0.1 µM, first compound 0.0316 µM
[8] = second compound 0.1 µM, first compound 0.1 µM
[9] = second compound 0.1 µM, first compound 0.316 µM
[10] = second compound 0.1 µM, first compound 1 µM
[11] = second compound 0.1 µM, first compound 3.16 µM
[12] = second compound 0.1 µM, first compound 10 µM
[13] = second compound 0.316 µM, first compound 0.0316 µM
[14] = second compound 0.316 µM, first compound 0.1 µM
[15] = second compound 0.316 µM, first compound 0.316 µM
[16] = second compound 0.316 µM, first compound 1 µM
[17] = second compound 0.316 µM, first compound 3.16 µM
[18] = second compound 0.316 µM, first compound 10 µM
[19] = second compound 1 µM, first compound 0.0316 µM
[20] = second compound 1 µM, first compound 0.1 µM
[21] = second compound 1 µM, first compound 0.316 µM
[22] = second compound 1 µM, first compound 1 µM
[23] = second compound 1 µM, first compound 3.16 µM
[24] = second compound 1 µM, first compound 10 µM
[25] = second compound 3.16 µM, first compound 0.0316 µM
[26] = second compound 3.16 µM, first compound 0.1 µM
[27] = second compound 3.16 µM, first compound 0.316 µM
[28] = second compound 3.16 µM, first compound 1 µM
[29] = second compound 3.16 µM, first compound 3.16 µM
[30] = second compound 3.16 µM, first compound 10 µM
[31] = second compound 0.0316 µM, first compound 0.000316 µM
[32] = second compound 0.0316 µM, first compound 0.001 µM
[33] = second compound 0.0316 µM, first compound 0.00316 µM
[34] = second compound 0.0316 µM, first compound 0.01 µM
[35] = second compound 0.1 µM, first compound 0.000316 µM
[36] = second compound 0.1 µM, first compound 0.001 µM
[37] = second compound 0.1 µM, first compound 0.00316 µM
[38] = second compound 0.1 µM, first compound 0.01 µM
[39] = second compound 0.316 µM, first compound 0.000316 µM
[40] = second compound 0.316 µM, first compound 0.001 µM
[41] = second compound 0.316 µM, first compound 0.00316 µM
[42] = second compound 0.316 µM, first compound 0.01 µM
[43] = second compound 1 µM, first compound 0.000316 µM
[44] = second compound 1 µM, first compound 0.001 µM
[45] = second compound 1 µM, first compound 0.00316 µM
[46] = second compound 1 µM, first compound 0.01 µM
[47] = second compound 3.16 µM, first compound 0.000316 µM
[48] = second compound 3.16 µM, first compound 0.001 µM
[49] = second compound 3.16 µM, first compound 0.00316 µM
[50] = second compound 3.16 µM, first compound 0.01 µM
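Further: spheroids exposed to agents for 7 days.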
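Wherever viability, T/C is given: 100% = DMSO vehicle control viability.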

SMILES	IC50 (second compound 0.0316 µM) [µM]	IC50 (second compound 0.1 µM) [µM]	IC50 (second compound 0.316 µM) [µM]	IC50 (second compound 1 µM) [µM]	IC50 (second compound 3.16 µM) [µM]	viability, T/C [1] [%]	viability, T/C [2] [%]	viability, T/C [3] [%]	viability, T/C [4] [%]	viability, T/C [5] [%]	viability, T/C [6] [%]	viability, T/C [7] [%]	viability, T/C [8] [%]	viability, T/C [9] [%]	viability, T/C [13] [%]	viability, T/C [14] [%]	viability, T/C [19] [%]	viability, T/C [20] [%]	viability, T/C [25] [%]	viability, T/C [26] [%]	other results
CC(C)NCC(C(=O)N1CCN(c2ncnc3c2C(C)CC3O)CC1)c1ccc(Cl)cc1 (stereo not given) + C=CC(=O)N1CCN(c2nc(OCC3CCCN3C)nc3c2CCN(c2cccc4cccc(C)c24)C3)CC1CC#N	0.489	0.251	0.132	0.118	< 0.0316	64.4	62.4	54.3	42.2	35.7	29.8	64.5	54.9	50.2	58.8	50.6	57.7	53.6	10.2	6.16	viability, T/C [10]: 39.2%; viability, T/C [11]: 30.8%; viability, T/C [12]: 29.1%; viability, T/C [15]: 44.1%; viability, T/C [16]: 31.8%; viability, T/C [17]: 26.2%; viability, T/C [18]: 26.3%; viability, T/C [21]: 38.6%; viability, T/C [22]: 33.4%; viability, T/C [23]: 26.4%; viability, T/C [24]: 23.1%; viability, T/C [27]: 5.23%; viability, T/C [28]: 4.82%; viability, T/C [29]: 3.02%; viability, T/C [30]: 1.82%
CC(C)n1nc(-c2ccc3oc(N)nc3c2)c2c(N)ncnc21 + C=CC(=O)N1CCN(c2nc(OCC3CCCN3C)nc3c2CCN(c2cccc4cccc(C)c24)C3)CC1CC#N	0.000596	0.000419	< 0.000316	< 0.000316	< 0.000316	17.2	14.5	–	–	–	–	16.5	13.5	–	14.8	12.1	13.9	11.1	5.8	4.1	viability, T/C [31]: 53%; viability, T/C [32]: 49.6%; viability, T/C [33]: 30.5%; viability, T/C [34]: 26%; viability, T/C [35]: 52%; viability, T/C [36]: 43.7%; viability, T/C [37]: 30.9%; viability, T/C [38]: 21.1%; viability, T/C [39]: 45.9%; viability, T/C [40]: 37.3%; viability, T/C [41]: 27.6%; viability, T/C [42]: 18.7%; viability, T/C [43]: 49.9%; viability, T/C [44]: 37.7%; viability, T/C [45]: 28.3%; viability, T/C [46]: 17.6%; viability, T/C [47]: 28.4%; viability, T/C [48]: 9.51%; viability, T/C [49]: 15.1%; viability, T/C [50]: 2.78%
CC1(C)CCC(CN2CCN(c3ccc(C(=O)NS(=O)(=O)c4ccc(NCC5CCOCC5)c([N+](=O)[O-])c4)c(Oc4cnc5[nH]ccc5c4)c3)CC2)=C(c2ccc(Cl)cc2)C1 + C=CC(=O)N1CCN(c2nc(OCC3CCCN3C)nc3c2CCN(c2cccc4cccc(C)c24)C3)CC1CC#N	1.38	1.36	1.12	1.03	< 0.0316	65.2	69.2	67.2	66.6	6.91	1.68	68.2	67.1	60.1	59.6	61.6	62.1	61.9	7.81	6.48	viability, T/C [10]: 67.6%; viability, T/C [11]: 7.16%; viability, T/C [12]: 1.62%; viability, T/C [15]: 61.6%; viability, T/C [16]: 54.9%; viability, T/C [17]: 3.92%; viability, T/C [18]: 2.34%; viability, T/C [21]: 55.6%; viability, T/C [22]: 51.2%; viability, T/C [23]: 2.41%; viability, T/C [24]: 0.74%; viability, T/C [27]: 3.08%; viability, T/C [28]: 0.59%; viability, T/C [29]: 0.43%; viability, T/C [30]: 0.18%
Cn1ncnc1[C@H]1c2n[nH]c(=O)c3cc(F)cc(c23)N[C@@H]1c1ccc(F)cc1 + C=CC(=O)N1CCN(c2nc(OCC3CCCN3C)nc3c2CCN(c2cccc4cccc(C)c24)C3)CC1CC#N	> 0.1	> 0.1	> 0.1	> 0.1	< 0.000316	68.7	64	–	–	–	–	60.5	53.8	–	56.1	57.7	52.8	57	12.4	11.6	viability, T/C [31]: 75.5%; viability, T/C [32]: 83.2%; viability, T/C [33]: 73.7%; viability, T/C [34]: 71.2%; viability, T/C [35]: 71.2%; viability, T/C [36]: 62.3%; viability, T/C [37]: 62%; viability, T/C [38]: 61.5%; viability, T/C [39]: 64.2%; viability, T/C [40]: 63.8%; viability, T/C [41]: 62.7%; viability, T/C [42]: 60.4%; viability, T/C [43]: 58.6%; viability, T/C [44]: 65.5%; viability, T/C [45]: 59.6%; viability, T/C [46]: 62.6%; viability, T/C [47]: 12.5%; viability, T/C [48]: 10.9%; viability, T/C [49]: 13.9%; viability, T/C [50]: 11.5%
